Source: PubChem BioAssay AID2305 (GlaxoSmithKline (GSK), 2010)

tested on: P. falciparum 3D7 growth, pLDH absorbance; assay: P. falciparum 3D7 growth inhibition, dose response, strain 3D7 (AID 2305)

How did the IC50 turn out when `CCN(CC)CCN(Cc1ccc(-c2ccc(C(F)(F)F)cc2)cc1)C(=O)Cn1c(CCc2cc(F)c(F)c(F)c2)nc(=O)c2ccccc21` was run?
Its IC50 is 830 nM.

How did the IC50 turn out when `Cc1cccc(-c2cc3cc(Nc4ccnc5cc(-c6nccs6)ccc45)ccc3[nH]2)c1` was run?
The IC50 was 170 nM.

How did the IC50 turn out when `COc1cc2[nH]c(-c3ccc(O)cc3)c(C)c(=O)c2c(OC)c1OC` was run?
The IC50 was 720 nM.

For `NC1CCN(Cc2ccc(-c3cccc(-c4nc5ccc(F)cc5[nH]4)c3)cc2)C1` (centres undefined), which IC50 is on record?
The IC50 was 760 nM.

Which IC50 does the source give for `Oc1cc(Nc2ccnc3cc(I)ccc23)c(F)cc1Cl` here?
Its IC50 is 830 nM.

How did the IC50 turn out when `Nc1c2ccccc2nc2cc(C(F)(F)F)ccc12` was run?
The IC50 was 840 nM.

For `Cc1nc(-c2nc(NCCc3c(C)noc3C)ncc2-c2ccsc2)sc1C`, which IC50 is on record?
The IC50 was 260 nM.

`CCNc1cc(C(=O)N[C@@H](Cc2ccccc2)[C@H](O)CNC(C)(C)CCCC(C)C)cc(N2CCCC2=O)c1` was tested. Which IC50 did it give?
The IC50 was 830 nM.

`COCc1nc(-c2ccccc2)nc(N2CCN(C(=O)NC(C)C)CC2)c1Cc1ccccc1F` was tested. Which IC50 did it give?
Its IC50 is 1000 nM.

With `CC(C)CNCc1cccc(-c2ccc(CN(CCCN3CCN(C)CC3)C(=O)CCC3CCCC3)cc2)c1` as the molecule, how does the IC50 read?
Its IC50 is 880 nM.

How did the IC50 turn out when `Cc1cccc(Cn2c(Cc3ccccc3)nnc2Sc2ccc([N+](=O)[O-])c(C#N)c2)c1` was run?
Its IC50 is 1140 nM.

With `COc1cc2nc(N3CCC(CNC(=O)c4ccc(-c5ccccc5)cc4)CC3)nc(N)c2cc1OC` as the molecule, how does the IC50 read?
Its IC50 is 570 nM.

How did the IC50 turn out when `Cc1[nH]c(C)c(-c2ccc(-c3ccc(OC(F)(F)F)cc3)cc2)c(=O)c1Cl` was run?
The IC50 was 40 nM.

For `O=C(NCCCCCN1CCC(c2c[nH]c3ccccc23)CC1)Nc1ccc(Cl)c(Cl)c1`, which IC50 is on record?
The IC50 was 920 nM.

With `CC(=O)c1ccc(N2C(=O)C3C(Cc4ccc(OC(C)(C)C)cc4)NC4(C(=O)N(Cc5ccc(C(C)(C)C)cc5)c5ccccc54)C3C2=O)cc1` (centres undefined) as the molecule, how does the IC50 read?
Its IC50 is 1280 nM.

For `Cc1ccc(Nc2nc(C)cc(NC3CCCC3)n2)cc1`, which IC50 is on record?
The IC50 was 290 nM.

How did the IC50 turn out when `CCCCCN1CCC(NS(=O)(=O)c2cccc(C(=O)Nc3ccc(C(F)(F)F)cc3)c2)C1` (centres undefined) was run?
The IC50 was 800 nM.

For `COCCNCc1cccc(-c2ccc3nccc(Nc4cc(O)ccc4C)c3c2)c1`, which IC50 is on record?
The IC50 was 750 nM.

`CCC(=O)OC(CCN(CC)CC)(c1ccccc1)c1ccccc1` was tested. Which IC50 did it give?
Its IC50 is 370 nM.

`COc1ccc2nc(C)cc(Nc3ccc(Oc4ccc(Cl)cc4)c(Cl)c3)c2c1` was tested. Which IC50 did it give?
Its IC50 is 190 nM.

With `CCCc1ccc(S(=O)(=O)NC2CCN(C(=O)Nc3ccc(I)cc3)CC2)cc1` as the molecule, how does the IC50 read?
The IC50 was 870 nM.

How did the IC50 turn out when `O=C(NCCCCCN1CCC(c2c[nH]c3ccccc23)CC1)c1ccc(-c2cccnc2)cc1` was run?
The IC50 was 1030 nM.

Which IC50 does the source give for `Cc1cc(N2CCCCC2)nc2ccc(NC(=O)c3cc(=O)c4ccccc4o3)cc12` here?
Its IC50 is 720 nM.

With `CCCN(CCC)CCCN(CCCN(CCC)CCC)c1cc(C)nc(Nc2ccc(Cl)cc2)n1` as the molecule, how does the IC50 read?
Its IC50 is 170 nM.

Which IC50 does the source give for `Cc1cc(N[C@@H](CC(C)C)C(=O)NCCOc2ccccc2)nc(NCCc2ccc(F)cc2)n1` here?
The IC50 was 1290 nM.

Which IC50 does the source give for `COc1ccc(-c2cccc(NC(=O)c3cccc(C#N)c3)c2)cc1CN1CCCN(C)CC1` here?
The IC50 was 190 nM.

With `COc1ccc(C2C(C(=O)Nc3ccc4c(c3)OCO4)c3cc(OC)c(OC)cc3C(=O)N2C)cc1` (centres undefined) as the molecule, how does the IC50 read?
The IC50 was 1040 nM.

`O=C(/C=C/c1ccc(Cl)c(Cl)c1)NCCCCCN1CCCN(C(=O)Nc2cccc(Cl)c2)CC1` was tested. Which IC50 did it give?
The IC50 was 670 nM.

For `CCCCN(CCCC)CCC(O)C(=Cc1ccc(Cl)cc1Cl)c1ccc(C(F)(F)F)cc1N` (centres undefined), which IC50 is on record?
Its IC50 is 190 nM.

How did the IC50 turn out when `Cc1cccc(OC(C)C(=O)Nc2cc(C(F)(F)F)ccc2N2CCOCC2)c1` (centres undefined) was run?
Its IC50 is 240 nM.

How did the IC50 turn out when `COc1ccc(C(=O)CCc2ccc(O)cc2)cc1` was run?
Its IC50 is 480 nM.

`CCC[C@@H]([C@@H](CC1CCCCC1)C(=O)N[C@H](C(=O)Nc1nccc(N)n1)C(C)(C)C)N(O)C=O` was tested. Which IC50 did it give?
The IC50 was 530 nM.

`CN(C)CCN(C)Cc1cccc(-c2cccc(NC(=O)c3cccc(C#N)c3)c2)c1` was tested. Which IC50 did it give?
The IC50 was 870 nM.

How did the IC50 turn out when `CO/C(=C\C=C\c1cc2cc(Cl)c(Cl)cc2[nH]1)C(=O)NCCCN1CCN(c2cccc(Cl)c2)CC1` was run?
The IC50 was 730 nM.

With `O=S(=O)(NC1CCCCN(Cc2ccccc2O)C1)c1ccc(C(F)(F)F)cc1` (centres undefined) as the molecule, how does the IC50 read?
The IC50 was 1300 nM.

For `CC(C)CCNC(=O)C1Cc2c([nH]c3cc(Br)ccc23)C2(CCN(Cc3ccccc3)CC2)N1` (centres undefined), which IC50 is on record?
Its IC50 is 790 nM.

For `Cc1cc2c(cc1C(F)(F)F)N(C(=O)Nc1ccc(C(=O)NCCN3CCCC3)cc1)CC2`, which IC50 is on record?
The IC50 was 320 nM.

For `CCc1nc2nc(C)cc(Nc3cc(C)cc(C)c3)n2n1`, which IC50 is on record?
Its IC50 is 290 nM.

For `NC(N)=Nc1ccc(OCCCCCOc2ccc(N=C(N)N)cc2Br)c(Br)c1`, which IC50 is on record?
The IC50 was 260 nM.

For `Cc1cc(N[C@@H](Cc2ccccc2)C(=O)NCCc2ccccc2)nc(NCCOc2ccccc2)n1`, which IC50 is on record?
The IC50 was 1000 nM.

For `OCC1CCN(Cc2ccc(-c3cccc(-c4nc5ccc(F)cc5[nH]4)c3)cc2)CC1`, which IC50 is on record?
The IC50 was 910 nM.

`CCc1cn(CCc2ccccc2)c2ccc(C(=O)N[C@@H](Cc3ccccc3)[C@H](O)CNC(C)(C)CCCC(C)C)cc12` was tested. Which IC50 did it give?
Its IC50 is 220 nM.

How did the IC50 turn out when `Cc1cccc2[nH]c(C3CCN(CC4CCN(C(=O)/C=C/c5ccc(Cl)c(Cl)c5)CC4)CC3)nc12` was run?
Its IC50 is 480 nM.

With `CC(C)CNCc1ccc(-c2ccccc2CNC2CCN(Cc3ccccc3)CC2)cc1` as the molecule, how does the IC50 read?
Its IC50 is 570 nM.

`CCN(CC)S(=O)(=O)c1ccc(Cl)c(C(=O)Nc2ccc3nc(C)sc3c2)c1` was tested. Which IC50 did it give?
Its IC50 is 800 nM.

For `O=C(NC1CCN(Cc2ccccc2)C1)c1ccc(Nc2ccc(Br)cc2)nc1` (centres undefined), which IC50 is on record?
The IC50 was 1080 nM.

Which IC50 does the source give for `COc1ccc2ccccc2c1CON1C(N)=NC(N)=NC1(C)C` here?
Its IC50 is 30 nM.

Which IC50 does the source give for `Cc1ccc(S(=O)(=O)N(CCCN2CCN(C)CC2)Cc2csc(-c3ccc(CNCc4ccccc4)cc3)n2)cc1` here?
The IC50 was 840 nM.

Which IC50 does the source give for `Cc1noc(C)c1-c1ccc2c(Nc3ccccc3C(C)(C)C)c(C(=O)NCc3ccc(C(F)(F)F)cc3)cnc2c1` here?
The IC50 was 760 nM.

For `Cc1c(F)cc(C(=O)NC2CC2)cc1-c1ccc2c(cnn2S(=O)(=O)c2ccc(F)c(F)c2)c1`, which IC50 is on record?
The IC50 was 270 nM.

How did the IC50 turn out when `NC(=O)c1cccc(C(=O)Nc2cccc(-c3csc(-c4nc5ccccc5[nH]4)c3)c2)c1` was run?
The IC50 was 130 nM.

For `O=C(Nc1cccc(-c2cccc(-c3nc4ccccc4[nH]3)c2)c1)c1cccnc1`, which IC50 is on record?
The IC50 was 650 nM.

How did the IC50 turn out when `Cc1cccc(NC(c2cccs2)c2c(NC(=O)c3ccccc3)sc(C)c2C)n1` (centres undefined) was run?
The IC50 was 830 nM.

For `NC1CCN(Cc2cccc(-c3ccc(-c4nc5ccccc5[nH]4)s3)c2)C1` (centres undefined), which IC50 is on record?
Its IC50 is 730 nM.

`O=C(NCCCCCN1CCCN(C(=O)Nc2ccc(Cl)c(C(F)(F)F)c2)CC1)[C@@H]1C[C@H]1c1ccc(Cl)c(Cl)c1` was tested. Which IC50 did it give?
Its IC50 is 850 nM.

How did the IC50 turn out when `COc1ccc(N2CCN(CCCOc3ccc(NC(=O)c4cc(Cl)cc(Cl)c4)cc3)CC2)c(OC)c1` was run?
Its IC50 is 900 nM.

For `COc1ccc(CNCc2ccc(-c3cccc(-c4nc5ccc(F)cc5[nH]4)c3)cc2)cc1`, which IC50 is on record?
Its IC50 is 200 nM.

With `Cc1ccc2nc(C)cc(NN=Cc3ccccc3Cl)c2c1` as the molecule, how does the IC50 read?
The IC50 was 750 nM.

How did the IC50 turn out when `COc1ccc2c(NN=Cc3ccc(F)cc3)cc(C)nc2c1` was run?
Its IC50 is 770 nM.

With `CN1CCCN(Cc2cccc(-c3ccc(NC(=O)c4cccc(C#N)c4)cc3)c2)CC1` as the molecule, how does the IC50 read?
Its IC50 is 720 nM.

How did the IC50 turn out when `COc1cc(OC)cc(-c2nnc(Sc3ccc(C#N)c([N+](=O)[O-])c3)n2C)c1` was run?
The IC50 was 940 nM.

How did the IC50 turn out when `Clc1ccc(-c2cnc3ccc(NCc4ccncc4)nn23)cc1` was run?
Its IC50 is 890 nM.

Which IC50 does the source give for `O=C(Nc1ccc(Cl)cc1)Nc1ccc(Cn2ncc(N3CCCNCC3)c(Cl)c2=O)cc1` here?
The IC50 was 780 nM.

Which IC50 does the source give for `CC(Cc1ccc(OCCCCOc2ccccc2)cc1)NCCCN1CCOCC1` (centres undefined) here?
The IC50 was 720 nM.

For `Oc1cc(-c2nc(-c3ccccc3)[nH]c2-c2ccncc2)ccc1Cl`, which IC50 is on record?
Its IC50 is 810 nM.

Which IC50 does the source give for `N#Cc1ccc(CNCCCCCCNCc2ccc(C#N)c3ccccc23)c2ccccc12` here?
The IC50 was 610 nM.

With `COc1cc(N(C)Cc2cnc3nc(N)nc(N)c3n2)cc(OC)c1OC` as the molecule, how does the IC50 read?
Its IC50 is 440 nM.

`CCCCCC(C)C(C)c1cc(O)c2c(c1)O[C@@]1(C(C)C)CC(O)[C@H](C)[C@@H]2C1` (some centres undefined) was tested. Which IC50 did it give?
Its IC50 is 990 nM.

For `O=C(Nc1cc(Cl)cc(Cl)c1)N[C@H]1CCN(CCCCCNC(=O)[C@@H]2C[C@H]2c2ccc(Cl)c(Cl)c2)C1`, which IC50 is on record?
Its IC50 is 860 nM.
